Assay results published in patent US20110065208A1, “DETERMINATION AND ESTIMATION OF ABSORPTION AND DISTRIBUTION OF SUBSTANCES IN BRAIN TISSUE” (SOVICELL GMBH, priority 2008, published 2011).
pKd: −log10 of the molar value. Where two headings read alike, the source gives them in different places.

Legend:
[1] = cited from earlier work
[2] = tested on: T1, AGP (α1-acid glycoprotein); assay: AGP binding constants (TRANSIL AGP Binding Kit)
T1 construct: fused on or other part: immobilised on silica beads (TRANSIL solid support)

[3] = target: HSA (human serum albumin) (Homo sapiens, UniProt P02768); assay: HSA binding constants (TRANSIL HSA Binding Kit)
HSA (human serum albumin), sequence (P02768 25-609): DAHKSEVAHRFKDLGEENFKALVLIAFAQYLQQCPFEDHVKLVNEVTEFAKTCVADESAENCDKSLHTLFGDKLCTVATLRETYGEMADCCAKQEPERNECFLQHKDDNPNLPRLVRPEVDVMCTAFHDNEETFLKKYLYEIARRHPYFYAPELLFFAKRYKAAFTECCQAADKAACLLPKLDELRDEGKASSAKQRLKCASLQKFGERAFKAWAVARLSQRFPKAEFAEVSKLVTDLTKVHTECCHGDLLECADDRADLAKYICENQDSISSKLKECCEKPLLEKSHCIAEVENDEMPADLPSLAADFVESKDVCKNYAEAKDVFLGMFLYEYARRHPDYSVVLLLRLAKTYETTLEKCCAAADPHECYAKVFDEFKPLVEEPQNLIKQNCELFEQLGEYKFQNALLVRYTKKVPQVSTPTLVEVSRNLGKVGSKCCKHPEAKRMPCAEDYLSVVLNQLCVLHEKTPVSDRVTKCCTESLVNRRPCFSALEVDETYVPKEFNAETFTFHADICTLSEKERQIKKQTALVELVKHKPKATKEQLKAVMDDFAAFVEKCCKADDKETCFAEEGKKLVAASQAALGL
Source text: In the equation are: • [drug]bound: Concentration of bound substance • [drug]free: Concentration of free substance in the supernatant • [protein]: Protein concentration in the respective wells.

[4] = Brain lipid-water partition coefficient log MAbrain (membrane affinity) on immobilized brain lipid membranes; assay type: physicochemical; conditions: for logMA_brain: Table 6, parameter set for free fraction in brain
Protocol: 440 mg of a brain lipid extract (Avanti Polar Lipids Inc., USA) are dissolved in 50 mL of chloroform. This solution is evaporated under reduced pressure in a glass flask in a rotating rotary evaporator, wherein a thin lipid film deposits on the wall.
The lipid film is swollen overnight in a water vapor atmosphere; subsequently, 88 mL of a buffer (20 mM HEPES, pH 7.0, 30 mM NaCl, 2 mM CaCl2) are added, and the lipid film is vesiculated by means of a high-pressure homogenizer.
5 g of the carrier material provided above are added to the vesicle solution thus produced and incubated overnight. Excess lipid is removed by washing three times with buffer (20 mM HEPES, pH 7.0, 30 mM NaCl, 2 mM CaCl2). Finally, this is followed by rebuffering in PBS (phosphate-buffered saline, 10 mM sodium phosphate, 0.9% NaCl, pH 7.4) and filling up to 25 mL with buffer. The suspension obtained is then used to determine the brain lipid-water partition coefficient, as described below.
To determine the brain lipid-water partition coefficient, a total of 5 wells of a 96-well microtiter plate are filled as follows: • Well 1: 405 μL PBS • Well 2: 375 μL PBS+30 μL suspension (see 2.) • Well 3: 357 μL PBS+48 μL suspension (see 2.) • Well 4: 338 μL PBS+77 μL suspension (see 2.) • Well 5: 405 μL PBS.
To each of these wells, 45 μL of a 500 μM solution of trifluoperazine in PBS/10% DMSO are added, and after mixing by resuspension, the solid body is separated from the supernatant by sedimentation. The concentration of the substance in the supernatant is quantified by UV measurement, and the brain lipid-water partition coefficient log MAbrain is calculated through the following equation: […]
In the equation are: • Vtotal Total volume per well • Vlipid Lipid volume per well • ctotal Substance concentration of wells 1 and 5 without binding partner • cwater Substance concentration in the supernatant of wells 2-4 with binding partner.
To determine the brain lipid-water partition coefficient, two 96-well microtiter plates are filled row by row as follows: • Row 1: 405 μL PBS • Row 2: 375 μL PBS+30 μL suspension (see 2.) • Row 3: 357 μL PBS+48 μL suspension (see 2.) • Row 4: 338 μL PBS+77 μL suspension (see 2.) • Row 5: 285 μL PBS+120 μL suspension (see 2.) • Row 6: 210 μL PBS+195 μL suspension (see 2.) • Row 7: 105 μL PBS+300 μL suspension (see 2.) • Row 8: 405 μL PBS.
A broad binding range is covered by this filling of the plates. […] After mixing by resuspension, the solid body is separated from the supernatant by sedimentation.
The concentration of the substance in the supernatant is quantified by HPLC, and the brain lipid-water partition coefficient log MAbrain is calculated through the abovementioned equation (4), wherein, in this case, Vtotal is the total volume per well, Vlipid is the lipid volume per well, ctotal is the substance concentration of rows 1 and 8 without binding partner, and cwater is the substance concentration in the supernatant of wells 2-7 with binding partner.

[5] = log K^B/F, bound to free fraction in blood plasma calculated from KD^HSA and KD^AGP; assay type: in vitro ADME; conditions: Table 4; calculated with [HSA] 588.2 μM, [AGP] 24.4 μM
Source text: The log K^B/F value represents the logarithmized ratio of the bound fraction to the free fraction in blood plasma, which has been approximately calculated from the dissociation constants KD^AGP and KD^HSA according to:
[formula] • fu Free substance concentration in plasma • [drug]total^plasma Total substance concentration in plasma • [HSA]

[6] = Table 6; free fraction in brain; cited from earlier work
[7] = log BB estimated by QSAR equation (9); conditions: Table 5; validation set, calculated by equation (9)
Protocol: To estimate the plasma-brain partition coefficients, a multilinear regression was carried out according to the equation:
log BB=A*log MAbrain+B*PSA+C*MW+D*log K^B/F+E. (6)

[8] = Table 4, test set for multilinear regression
[9] = Table 1, PBS pH 7.4, quantified by HPLC
[10] = Table 4, repeated parameter set
[11] = Table 5, values from the literature

SMILES: Clc1cccc(Cl)c1N=C1NCCN1 [Clonidine, clonidine]
- logBB [1, 8]: 0.11
- pKd [2]: 4.16
- pKd [3]: 2.72
- logMAbrain [4, 9]: 1.30
- logMAbrain [4, 10]: 1.30
- logK^B/F [5]: −0.17

SMILES: Cc1cc(=O)n(-c2ccccc2)n1C [Antipyrine, antipyrine]
- logBB [1, 8]: −0.1
- pKd ([2]; Table 3, quantified by HPLC, read-out: KD^AGP): 3.42
- pKd [3]: 2.57
- logMAbrain [4, 9]: 1.33
- logMAbrain [4, 10]: 1.33
- logK^B/F [5]: −0.54

SMILES: O=C(CCCN1CCC(O)(c2ccc(Cl)cc2)CC1)c1ccc(F)cc1 [Haloperidol]
- fu_brain [6]: 0.011
- logMA_brain [4]: 2.7

SMILES: CN(C)CCCN1c2ccccc2Sc2ccccc21 [Promazine, promazine]
- logBB [1, 8]: 1.23
- pKd [2]: 5.80
- pKd [3]: 4.00
- logMAbrain [4, 9]: 3.20
- logMAbrain [4, 10]: 3.20
- logK^B/F [5]: 1.33

SMILES: CCCCC1C(=O)N(c2ccccc2)N(c2ccccc2)C1=O [Phenylbutazone, phenylbutazone]
- logBB [1, 8]: −0.52
- pKd [2]: 4.15

SMILES: O=C1NC(=O)C(c2ccccc2)(c2ccccc2)N1 [Phenytoin]
- fu_brain [6]: 0.082

SMILES: CNCCCN1c2ccccc2CCc2ccccc21 [Desipramine, desipramine]
- logBB [1, 8]: 1.2
- pKd [2]: 5.29
- pKd [3]: 3.70

SMILES: CCN(CC)CCOC(=O)c1ccc(N)cc1 [Procaine, procaine]
- logBB [1, 11]: 0.05
- logBB_calc [7]: −0.41

SMILES: CN/C(=N/CCSCc1nc[nH]c1C)NC#N [Cimetidine, cimetidine]
- logBB [1, 8]: −1.42
- pKd [2]: 3.60
- pKd [3]: 3.04
- logMAbrain [4, 9]: 1.80
- logMAbrain [4, 10]: 1.80
- logK^B/F [5]: −0.13

SMILES: O=C(O)c1ccccc1O [Salicylic acid, salicylic acid]
- pKd [2]: 3.19
- logMAbrain [4, 9]: 1.30
- logMAbrain [4, 10]: 1.30
- logK^B/F [5]: 1.37

SMILES: CN(C)CCCN1c2ccccc2CCc2ccccc21 [Imipramine, imipramine]
- logBB [1, 8]: 0.83
- pKd [2]: 5.51
- pKd [3]: 3.66

SMILES: CN(C)CCCN1c2ccccc2Sc2ccc(Cl)cc21 [Chlorpromazine, chlorpromazine]
- pKd [2]: 6.14
- fu_brain [6]: 0.002
- logMAbrain [4, 9]: 3.70
- logMAbrain [4, 10]: 3.70
- logMA_brain [4]: 3.70

SMILES: CNC(=C[N+](=O)[O-])NCCSCc1ccc(CN(C)C)o1 [Ranitidine, ranitidine]
- logBB [1, 11]: −1.23

SMILES: Cn1c(=O)c2c(ncn2C)n(C)c1=O [Caffeine, caffeine]
- pKd [2]: 3.24
- fu_brain [6]: 0.52
- logMAbrain [4, 9]: 1.36
- logMAbrain [4, 10]: 1.36
- logMA_brain [4]: 1.36

SMILES: CCN(CC)CC(=O)Nc1c(C)cccc1C [Lidocaine, lidocaine]
- logBB_calc [7]: −0.08

SMILES: NC(=O)N1c2ccccc2C=Cc2ccccc21 [Carbamazepine, carbamazepine]
- logBB [1, 11]: 0
- fu_brain [6]: 0.1185
- logMA_brain [4]: 1.79
- logBB_calc [7]: −0.09

SMILES: CC(C)NCC(O)COc1cccc2ccccc12 (stereo not shown) [Propranolol, propranolol]
- logBB [1, 8]: 0.64
- pKd [2]: 5.27
- pKd [3]: 3.21
- logMAbrain [4, 9]: 2.70
- logMAbrain [4, 10]: 2.70
- logK^B/F [5]: 0.74

SMILES: CNCCC(Oc1ccc(C(F)(F)F)cc1)c1ccccc1 (stereo not shown) [Fluoxetine, fluoxetine]
- fu_brain [6]: 0.004
- logMA_brain [4]: 3.52
- logBB_calc [7]: 1.29

SMILES: CN1CCN(CCCN2c3ccccc3Sc3ccc(C(F)(F)F)cc32)CC1 [Trifluoperazine, trifluoperazine]
- logBB [1, 8]: 1.44
- pKd [2]: 6.60
- pKd [3]: 4.92
- fu_brain [6]: 0.0007
- logMAbrain ([4]; PBS pH 7.4, quantified by UV measurement, 5 wells): 4.7
- logMAbrain [4, 9]: 4.70
- logMAbrain [4, 10]: 4.70
- logMA_brain [4]: 4.70
- logK^B/F [5]: 2.17

SMILES: CC(=O)Oc1ccccc1C(=O)O [Acetylsalicylic acid, acetylsalicylic acid]
- logBB [1, 8]: −0.5
- pKd [2]: 3.34
- pKd [3]: 3.44
- logMAbrain [4, 9]: 1.40
- logMAbrain [4, 10]: 1.40
- logK^B/F [5]: 0.23

SMILES: COc1ccc2c(c1)c(CC(=O)O)c(C)n2C(=O)c1ccc(Cl)cc1 [Indomethacin, indomethacin]
- logBB [1, 8]: −1.26
- pKd [2]: 4.37
- logMAbrain [4, 9]: 2.30
- logMAbrain [4, 10]: 2.30
- logK^B/F [5]: 2.97

SMILES: C=C[C@H]1C[N@@]2CC[C@H]1C[C@@H]2[C@@H](O)c1ccnc2ccc(OC)cc12 [Quinidine, quinidine]
- pKd [2]: 4.89
- logMAbrain [4, 9]: 2.10
- logMAbrain [4, 10]: 2.10

SMILES: CC(C)Cc1ccc(C(C)C(=O)O)cc1 (stereo not shown) [Ibuprofen, ibuprofen]
- logBB [1, 8]: −0.18
- pKd [2]: 3.17
- logMAbrain [4, 9]: 1.70
- logMAbrain [4, 10]: 1.70
- logK^B/F [5]: 3.14

SMILES: CN1CCN2c3ccccc3Cc3ccccc3C2C1 (stereo not shown) [Mianserin, mianserin]
- logBB [1, 11]: 0.99
- logBB_calc [7]: 1.47

SMILES: CN(C)CCC=C1c2ccccc2CCc2ccccc21 [Amitryptilline, amitryptilline]
- logBB [1, 11]: 0.87
- fu_brain [6]: 0.009
- logMA_brain [4]: 2.94
- logBB_calc [7]: 1.38

SMILES: CSc1ccc2c(c1)N(CCC1CCCCN1C)c1ccccc1S2 (stereo not shown) [Thioridazine]
- fu_brain [6]: 0.001
- logMA_brain [4]: 3.74

SMILES: Cn1c(=O)c2[nH]cnc2n(C)c1=O [Theophylline, theophylline]
- pKd [2]: 3.09
